{"source": "patent US9844521B2", "about": "“Pharmaceutical composition comprising ginger extract or shogaol” (UNIVERSITY-INDUSTRY COOPERATION GROUP OF KYUNG HEE …, priority 2008, dated 2017)", "key": {"E. coli WP2 uvrA": {"system": "E. coli WP2 uvrA", "experiment": "Back mutation test (genotoxicity in bacteria), E. coli strain", "settings": "compared with negative control", "procedure": "(§1) In order to evaluate genotoxicity in bacteria, a back mutation test was performed using histidine-requiring salmonella typhimurium strains (TA 100, TA 1535, TA 98, and TA 1537) and an E. coli strain (E. coli WP2 uvrA). As a result, a positive control has a substantially greater colony number than a negative control. […] Accordingly, it was confirmed that the ginger extract and shogaol all had stability in the genotoxicity test."}, "[1]": {"system": "rat primary mesencephalic dopaminergic cells", "experiment": "Protection of dopamine cells against 6-OHDA neurotoxicity (TH immunohistochemistry)", "format": "cell-based", "settings": "0.01 μM, 10 μM 6-OHDA for 18 hours; 6-OHDA group 34.00±5.77% of the control", "procedure": "(§2) Female Sprague-Dawley rats (2-week old) were used, and shogaol was obtained from WAKO Company (Japan).\n(§3) Fetal mesencephalon tissues of Sprague-Dawley rats […] were desquamated, and mechanically dissociated by using a forcept. The tissues were treated with trypsin and the number of cells was counted, and the cells were seeded on a cover slip coated with poly-L-lysine (PLL), and then proliferated in an incubator including 5% CO2 and 95% air at a temperature of 37 °C for 5 days. A fetal bovine serum (FBS)-free media was treated with 0.01 μM or 0.1 μM of shogaol after the shogaol was diluted, or the ginger extract (the ethanol extract, the hexane fraction, the ethyl acetate fraction, the butanolfraction, and the water fraction prepared according to Example 1) after the ginger extract was diluted. […]\n(§4) Cells immobilized by using 4% PFA were washed with PBS and then, dehydrated with 1% hydrogen peroxide for 15 minutes. […] After the color-producing using DAB, a cover slip was separated and then mounted on a slide by using a gel mount and the number of cells was counted.\n(§5) Cells were color-produced by immunohistochemistry in the same manner as Experimental Example 3-1, and the number of cells was counted and the results are shown in FIGS. 8 and 9."}, "[2]": {"system": "rat primary mesencephalic dopaminergic cells", "experiment": "Protection of dopamine cells against MPP+ neurotoxicity (TH immunohistochemistry)", "format": "cell-based", "settings": "0.01 μM, 10 μM MPP+ for 23 hours; MPP+ group 44.25±7.61% of a control", "procedure": "as §2, §3, §4, §5"}, "[3]": {"system": "salmonella typhimurium strains (TA 100, TA 1535, TA 98, and TA 1537)", "experiment": "Back mutation test (genotoxicity in bacteria), Salmonella strains", "settings": "TA 100, TA 1535, TA 98, TA 1537; compared with negative control", "procedure": "as §1"}, "PC12 cells": {"system": "PC12 cells", "experiment": "Neurite outgrowth of PC12 cells treated with conditioned media of C6 cells", "format": "cell-based, mouse", "settings": "20 μM in C6 conditioned media, microscope, fourth day after treatment", "procedure": "This test was performed using a glioma C6 cell line of […] which is known as a cell line that secretes a nerve growth factor (NGF), and a pheochromocytoma PC12 cell line of […] which is known as a cell line that grows neurite with respect to an NGF in a similar way as a neuron. C6 cells and PC12 cells were obtained from Korean Cell Line Bank (KCLB Nos. 10107 and 21721, respectively). C6 cells were cultured using DMEM media (Gibco BRL, USA) supplemented with 3.4 g/L of sodium bicarbonate (NaHCO3), 10% fetal bovine serum, and 1% penicillin-streptomycin antibiotics (10000 U/ml), and PC12 cells were cultured using RPMI1640 medium (Gibco BRL, USA) supplemented with 2.0 g/L of sodium bicarbonate, 10% horse serum, 5% fetal bovine serum, and 1% penicillin-streptomycin antibiotics (10000 U/ml). […]\nC6 cells attached to a 100 mm culture vessel were separated from the culture vessel by using 0.25% Trypsin-EDTA (Gibco BRL, USA), and then 10 ml of fresh medium was added to the cells to prepare a cell suspension. Then, the number of viable cells was counted and calculated by using a cell number counter. The cells were divided based on the counted cell number such that 2×10^6 cells were contained in a 100 mm culture dish. […]"}}}
{"smiles": "CCCCC/C=C/C(=O)CCc1ccc(O)c(OC)c1", "note": "[shogaol, (E)-1-(4-hydroxy-3-methoxyphenyl)dec-4-en-3-one]", "values": [{"measurement": "colony number (back mutation)", "setting": "E. coli WP2 uvrA", "result": "the colony number was not increased"}, {"measurement": "number of dopamine positive cells", "setting": "[1]", "result": "57.25±5.65", "unit": "%"}, {"measurement": "number of dopamine positive cells", "setting": "[2]", "result": "91.50±3.38", "unit": "%"}, {"measurement": "colony number (back mutation)", "setting": "[3]", "result": "the colony number was not increased"}, {"measurement": "growth of neurite of the PC12 cells", "setting": "PC12 cells", "result": "increased"}]}
